# Read-outs that look alike come from different tables or passages of the source.
# Biological target: T1, PD-1/PD-L1 (Homo sapiens, UniProt Q9NZQ7)
# T1 construct: made in house; host or cells: HEK293T
# Assay: PD-1/PD-L1 Homogenous Time-Resolved Fluorescence (HTRF) binding assay
# Conditions: PD-L1-His 10 nM, PD-1-Ig 20 nM, read-out: Range or IC50
# How it was run: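 Additional pairs run were PD-1-Ig with PD-L2-His (20 & 5 nM) and CD80-His with PD-L1-Ig (100 & 10 nM), all human proteins. Buffer: dPBS plus 0.1% BSA, 0.05% Tween-20; time-resolved FRET read-out via 1 nM Eu-cryptate anti-Ig and 20 nM APC anti-His, final concentrations.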
# T1 sequence (Q9NZQ7 with tags, fused parts or gaps): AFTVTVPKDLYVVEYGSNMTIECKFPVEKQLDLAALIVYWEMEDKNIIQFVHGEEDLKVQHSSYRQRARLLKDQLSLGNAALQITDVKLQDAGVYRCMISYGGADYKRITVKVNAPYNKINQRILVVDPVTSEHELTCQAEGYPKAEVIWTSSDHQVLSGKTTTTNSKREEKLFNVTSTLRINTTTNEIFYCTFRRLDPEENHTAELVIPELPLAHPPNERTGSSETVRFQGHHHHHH
Compound,IC50 (value given as range class),IC50 (numeric IC50)
"Cc1c(COc2cc(OCc3cncc(C#N)c3)c(CN[C@](C)(CO)C(=O)O)cc2Cl)cccc1-c1cccc(OCCCN2CC[C@@H](O)C2)c1Cl [Example 1121, (R)-2-((5-Chloro-4-((2′-chloro-3′-(3-((R)-3-hydroxypyrrolidin-1-yl)propoxy)-2-methyl-[1,1′-biphenyl]-3-yl)methoxy)-2-((5-cyanopyridin-3-yl)methoxy)benzyl)amino)-3-hydroxy-2-methylpropanoic Acid]",0.21 to 10 nM,
"Cc1c(COc2cc(OCc3cncc(C#N)c3)c(C=O)cc2Cl)cccc1-c1cccc(OCCCN2CC[C@@H](O)C2)c1Cl [Example 1509, (R)-5-((4-chloro-5-((2′-chloro-3′-(3-(3-hydroxypyrrolidin-1-yl)propoxy)-2-methyl-[1,1′-biphenyl]-3-yl)methoxy)-2-formylphenoxy)methyl)nicotinonitrile]",,12 nM
"Cc1c(COc2cc(OCc3cncc(C#N)c3)c(CN3CCCC[C@H]3C(=O)O)cc2Cl)cccc1-c1cccc(OCCCN2CC[C@@H](O)C2)c1Cl [Example 1510, (S)-1-(5-chloro-4-((2′-chloro-3′-(3-((R)-3-hydroxypyrrolidin-1-yl)propoxy)-2-methyl-[1,1′-biphenyl]-3-yl)methoxy)-2-((5-cyanopyridin-3-yl)methoxy)benzyl)piperidine-2-carboxylic acid]",0.21 to 10 nM,
"Cc1c(COc2cc(OCc3cncc(C#N)c3)c(CN[C@@](C)(CO)C(=O)O)cc2Cl)cccc1-c1cccc(OCCCN2CC[C@@H](O)C2)c1Cl [Example 1511, (S)-2-((5-chloro-4-((2′-chloro-3′-(3-((R)-3-hydroxypyrrolidin-1-yl)propoxy)-2-methyl-[1,1′-biphenyl]-3-yl)methoxy)-2-((5-cyanopyridin-3-yl)methoxy)benzyl)amino)-3-hydroxy-2-methylpropanoic acid]",0.21 to 10 nM,
"Cc1c(COc2cc(OCc3cncc(C#N)c3)c(CN[C@H](CO)C(=O)O)cc2Cl)cccc1-c1cccc(OCCCN2CC[C@@H](O)C2)c1Cl [Example 1512, (R)-2-((5-chloro-4-((2′-chloro-3′-(3-((R)-3-hydroxypyrrolidin-1-yl)propoxy)-2-methyl-[1,1′-biphenyl]-3-yl)methoxy)-2-((5-cyanopyridin-3-yl)methoxy)benzyl)amino)-3-hydroxypropanoic acid]",0.21 to 10 nM,
"Cc1c(COc2cc(OCc3cncc(S(C)(=O)=O)c3)c(CN3CCCC[C@H]3C(=O)O)cc2Cl)cccc1-c1cccc(OCCCN2CC[C@@H](O)C2)c1Cl [Example 1513, (S)-1-(5-chloro-4-((2′-chloro-3′-(3-((R)-3-hydroxypyrrolidin-1-yl)propoxy)-2-methyl-[1,1′-biphenyl]-3-yl)methoxy)-2-((5-(methylsulfonyl)pyridin-3-yl)methoxy)benzyl)piperidine-2-carboxylic acid]",10 to 100 nM,
"Cc1c(COc2cc(OCc3cncc(C#N)c3)c(CN[C@@](C)(CO)C(=O)O)cc2Cl)cccc1-c1cccc(OCCCN2CC[C@@H](O)C2)c1C(F)F [Example 1514, (S)-2-((5-chloro-2-((5-cyanopyridin-3-yl)methoxy)-4-((2′-(difluoromethyl)-3′-(3-((R)-3-hydroxypyrrolidin-1-yl)propoxy)-2-methyl-[1,1′-biphenyl]-3-yl)methoxy)benzyl)amino)-3-hydroxy-2-methylpropanoic acid]",0.21 to 10 nM,
"Cc1c(COc2cc(OCc3cncc(C#N)c3)c(CO)cc2Cl)cccc1-c1cccc(OCCCN2CC[C@@H](O)C2)c1C(F)F [Example 1515, (R)-5-((4-chloro-5-((2′-(difluoromethyl)-3′-(3-(3-hydroxypyrrolidin-1-yl)propoxy)-2-methyl-[1,1′-biphenyl]-3-yl)methoxy)-2-(hydroxymethyl)phenoxy)methyl)nicotinonitrile]",10 to 100 nM,
"Cc1c(COc2cc(OCc3cncc(C#N)c3)c(CN[C@@](C)(CO)C(=O)O)cc2Cl)cccc1-c1cccc(OCCCN2CCC(O)(CC(=O)O)C2)c1C (stereo partly drawn) [Example 1517, (2S)-2-((4-((3′-(3-(3-(carboxymethyl)-3-hydroxypyrrolidin-1-yl)propoxy)-2,2′-dimethyl-[1,1′-biphenyl]-3-yl)methoxy)-5-chloro-2-((5-cyanopyridin-3-yl)methoxy)benzyl)amino)-3-hydroxy-2-methylpropanoic acid]",0.21 to 10 nM,
"Cc1c(COc2cc(OCc3cncc(C(N)=O)c3)c(CN[C@@](C)(CO)C(=O)O)cc2Cl)cccc1-c1cccc(OCCCN2CCC(O)(CC(=O)O)C2)c1Cl (stereo partly drawn) [Example 1518, (2S)-2-((2-((5-carbamoylpyridin-3-yl)methoxy)-4-((3′-(3-(3-(carboxymethyl)-3-hydroxypyrrolidin-1-yl)propoxy)-2′-chloro-2-methyl-[1,1′-biphenyl]-3-yl)methoxy)-5-chlorobenzyl)amino)-3-hydroxy-2-methylpropanoic acid]",10 to 100 nM,
"Cc1c(COc2cc(OCc3cncc(C#N)c3)c(CN3CCCC[C@H]3C(=O)O)cc2Cl)cccc1-c1cccc(OCCCN2CC[C@@H](O)C2)c1F [Example 1520, (S)-1-(5-chloro-2-((5-cyanopyridin-3-yl)methoxy)-4-((2′-fluoro-3′-(3-((R)-3-hydroxypyrrolidin-1-yl)propoxy)-2-methyl-[1,1′-biphenyl]-3-yl)methoxy)benzyl)piperidine-2-carboxylic acid]",0.21 to 10 nM,
"Cc1c(COc2cc(OCc3cncc(C#N)c3)c(CN[C@@](C)(CO)C(=O)O)cc2Cl)cccc1-c1cccc(O[C@@H](C)CCN2CC[C@@H](O)C2)c1Cl [Example 1521, (S)-2-((5-chloro-4-((2′-chloro-3′-(((S)-4-((R)-3-hydroxypyrrolidin-1-yl)butan-2-yl)oxy)-2-methyl-[1,1′-biphenyl]-3-yl)methoxy)-2-((5-cyanopyridin-3-yl)methoxy)benzyl)amino)-3-hydroxy-2-methylpropanoic acid]",0.21 to 10 nM,
"Cc1c(COc2cc(OCc3cncc(C#N)c3)c(CN3CCCC[C@H]3C(=O)O)cc2Cl)cccc1-c1cccc(O[C@@H](C)CCN2CC[C@@H](O)C2)c1Cl [Example 1522, (S)-1-(5-chloro-4-((2′-chloro-3′-(((S)-4-((R)-3-hydroxypyrrolidin-1-yl)butan-2-yl)oxy)-2-methyl-[1,1′-biphenyl]-3-yl)methoxy)-2-((5-cyanopyridin-3-yl)methoxy)benzyl)piperidine-2-carboxylic acid]",0.21 to 10 nM,
Cc1c(COc2cc(OCc3cncc(C#N)c3)c(CN3CCCC[C@H]3C(=O)O)cc2Cl)cccc1-c1cccc(O[C@H](C)CCN2CC[C@@H](O)C2)c1Cl [Example 1523],0.21 to 10 nM,
Cc1c(COc2cc(OCc3cncc(C#N)c3)c(CN[C@@](C)(CO)C(=O)O)cc2Cl)cccc1-c1cccc(O[C@H](C)CCN2CC[C@@H](O)C2)c1Cl [Example 1524],0.21 to 10 nM,
"Cc1c(COc2cc(OCc3cncc(C#N)c3)c(CN[C@@](C)(CO)C(=O)O)cc2Cl)cccc1-c1cccc(O[C@H](C)CCN2CC[C@@H](O)C2)c1C [Example 1525, (S)-2-((5-chloro-2-((5-cyanopyridin-3-yl)methoxy)-4-((3′-(((R)-4-((R)-3-hydroxypyrrolidin-1-yl)butan-2-yl)oxy)-2,2′-dimethyl-[1,1′-biphenyl]-3-yl)methoxy)benzyl)amino)-3-hydroxy-2-methylpropanoic acid]",0.21 to 10 nM,
"Cc1c(COc2cc(OCc3cncc(C#N)c3)c(CN3CCCC[C@H]3C(=O)O)cc2Cl)cccc1-c1cccc(O[C@H](C)CCN2CC[C@@H](O)C2)c1C [Example 1526, (S)-1-(5-chloro-2-((5-cyanopyridin-3-yl)methoxy)-4-((3′-(((R)-4-((R)-3-hydroxypyrrolidin-1-yl)butan-2-yl)oxy)-2,2′-dimethyl-[1,1′-biphenyl]-3-yl)methoxy)benzyl)piperidine-2-carboxylic acid]",0.21 to 10 nM,
"Cc1ccc(OCCCN2CC[C@@H](O)C2)cc1-c1cccc(COc2cc(OCc3cncc(C#N)c3)c(CN3CCCC[C@H]3C(=O)O)cc2Cl)c1C [Example 1528, (S)-1-(5-chloro-2-((5-cyanopyridin-3-yl)methoxy)-4-((5′-(3-((R)-3-hydroxypyrrolidin-1-yl)propoxy)-2,2′-dimethyl-[1,1′-biphenyl]-3-yl)methoxy)benzyl)piperidine-2-carboxylic acid]",0.21 to 10 nM,
"Cc1c(COc2cc(OCCCN3CC[C@@H](O)C3)c(CN3CCCC[C@H]3C(=O)O)cc2Cl)cccc1-c1cccc(OCCCN2CC[C@@H](O)C2)c1C [Example 1529, (S)-1-(5-chloro-2-(3-((R)-3-hydroxypyrrolidin-1-yl)propoxy)-4-((3′-(3-((R)-3-hydroxypyrrolidin-1-yl)propoxy)-2,2′-dimethyl-[1,1′-biphenyl]-3-yl)methoxy)benzyl)piperidine-2-carboxylic Acid]",,2 nM
"Cc1c(COc2cc(OCCCN3CC[C@@H](O)C3)c(CN[C@@H](CO)C(=O)O)cc2Cl)cccc1-c1cccc(OCCCN2CC[C@@H](O)C2)c1C [Example 1530, (5-chloro-2-(3-((R)-3-hydroxypyrrolidin-1-yl)propoxy)-4-((3′-(3-((R)-3-hydroxypyrrolidin-1-yl)propoxy)-2,2′-dimethyl-[1,1′-biphenyl]-3-yl)methoxy)benzyl)-L-serine]",0.21 to 10 nM,
"Cc1c(COc2cc(OCCCN3CC[C@@H](O)C3)c(CN[C@](C)(CO)C(=O)O)cc2Cl)cccc1-c1cccc(OCCCN2CC[C@@H](O)C2)c1C [Example 1531, (R)-2-((5-chloro-2-(3-((R)-3-hydroxypyrrolidin-1-yl)propoxy)-4-((3′-(3-((R)-3-hydroxypyrrolidin-1-yl)propoxy)-2,2′-dimethyl-[1,1′-biphenyl]-3-yl)methoxy)benzyl)amino)-3-hydroxy-2-methylpropanoic Acid]",0.21 to 10 nM,

# Source: patent US10745382B2 (BRISTOL-MYERS SQUIBB COMPANY, priority 2015, dated 2020)
